Results reported in patent US20250170266A1 (ZYMEWORKS BC INC., priority 2022, published 2025).
pEC50: −log10 of the molar value. Like-named read-outs stand apart in the source and are kept apart here.

Assays:
Type in all cases: cell-based
[1] = target: T1, hTLR7 (Homo sapiens, UniProt Q9NYK1); assay: Reporter Gene Assay (RGA), HEK-Blue hTLR7 reporter cells, SEAP readout; conditions: overnight incubation, SEAP absorbance 620 nm
T1 construct: host or cells: HEK-Blue hTLR7 reporter cells (HEK293-derived, own knowledge)
T1 sequence (Q9NYK1 27-1049): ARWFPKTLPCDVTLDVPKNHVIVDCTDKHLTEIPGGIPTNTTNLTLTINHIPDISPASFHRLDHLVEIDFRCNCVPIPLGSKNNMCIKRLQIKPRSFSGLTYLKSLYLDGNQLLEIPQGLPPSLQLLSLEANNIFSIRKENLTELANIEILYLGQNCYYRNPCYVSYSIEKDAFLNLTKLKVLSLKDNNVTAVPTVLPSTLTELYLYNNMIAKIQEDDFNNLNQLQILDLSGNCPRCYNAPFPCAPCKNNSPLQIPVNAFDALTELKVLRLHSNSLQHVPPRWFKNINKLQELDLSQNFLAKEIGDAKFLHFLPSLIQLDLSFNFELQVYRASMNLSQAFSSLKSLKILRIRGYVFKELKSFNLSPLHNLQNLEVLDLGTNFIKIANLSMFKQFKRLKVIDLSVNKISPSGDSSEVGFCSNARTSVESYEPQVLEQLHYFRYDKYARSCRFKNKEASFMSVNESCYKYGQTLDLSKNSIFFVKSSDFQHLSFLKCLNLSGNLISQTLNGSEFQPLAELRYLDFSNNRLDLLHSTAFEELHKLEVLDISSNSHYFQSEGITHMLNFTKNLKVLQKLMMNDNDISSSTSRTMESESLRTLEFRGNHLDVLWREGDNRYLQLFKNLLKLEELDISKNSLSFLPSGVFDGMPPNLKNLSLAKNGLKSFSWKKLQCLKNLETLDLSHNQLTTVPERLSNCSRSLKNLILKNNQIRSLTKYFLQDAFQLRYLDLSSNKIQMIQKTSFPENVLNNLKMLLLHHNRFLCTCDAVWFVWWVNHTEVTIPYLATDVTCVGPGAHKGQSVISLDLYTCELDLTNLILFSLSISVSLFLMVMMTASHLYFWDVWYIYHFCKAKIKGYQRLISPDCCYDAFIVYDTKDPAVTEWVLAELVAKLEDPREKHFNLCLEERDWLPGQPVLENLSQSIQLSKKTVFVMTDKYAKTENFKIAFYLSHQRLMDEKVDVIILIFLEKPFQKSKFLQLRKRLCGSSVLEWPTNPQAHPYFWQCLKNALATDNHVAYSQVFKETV
Method in brief: (§1)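 HEK-Blue reporter cells expressing human or mouse TLR7 (1.5×10^4 cells) were treated with an 11-point, 4-fold compound titration from 15 pM in HEK-Blue Detection medium. Incubation was overnight at 37° C with 5% CO2. Secreted embryonic alkaline phosphatase was read as absorbance at 620 nm.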

[2] = target: T2, mTLR7 (Mus musculus, UniProt P58681); assay: Reporter Gene Assay (RGA), HEK-Blue mTLR7 reporter cells, SEAP readout; conditions: overnight incubation, SEAP absorbance 620 nm
T2 construct: host or cells: HEK-Blue mTLR7 reporter cells (HEK293-derived, own knowledge)
T2 sequence (P58681 27-1050): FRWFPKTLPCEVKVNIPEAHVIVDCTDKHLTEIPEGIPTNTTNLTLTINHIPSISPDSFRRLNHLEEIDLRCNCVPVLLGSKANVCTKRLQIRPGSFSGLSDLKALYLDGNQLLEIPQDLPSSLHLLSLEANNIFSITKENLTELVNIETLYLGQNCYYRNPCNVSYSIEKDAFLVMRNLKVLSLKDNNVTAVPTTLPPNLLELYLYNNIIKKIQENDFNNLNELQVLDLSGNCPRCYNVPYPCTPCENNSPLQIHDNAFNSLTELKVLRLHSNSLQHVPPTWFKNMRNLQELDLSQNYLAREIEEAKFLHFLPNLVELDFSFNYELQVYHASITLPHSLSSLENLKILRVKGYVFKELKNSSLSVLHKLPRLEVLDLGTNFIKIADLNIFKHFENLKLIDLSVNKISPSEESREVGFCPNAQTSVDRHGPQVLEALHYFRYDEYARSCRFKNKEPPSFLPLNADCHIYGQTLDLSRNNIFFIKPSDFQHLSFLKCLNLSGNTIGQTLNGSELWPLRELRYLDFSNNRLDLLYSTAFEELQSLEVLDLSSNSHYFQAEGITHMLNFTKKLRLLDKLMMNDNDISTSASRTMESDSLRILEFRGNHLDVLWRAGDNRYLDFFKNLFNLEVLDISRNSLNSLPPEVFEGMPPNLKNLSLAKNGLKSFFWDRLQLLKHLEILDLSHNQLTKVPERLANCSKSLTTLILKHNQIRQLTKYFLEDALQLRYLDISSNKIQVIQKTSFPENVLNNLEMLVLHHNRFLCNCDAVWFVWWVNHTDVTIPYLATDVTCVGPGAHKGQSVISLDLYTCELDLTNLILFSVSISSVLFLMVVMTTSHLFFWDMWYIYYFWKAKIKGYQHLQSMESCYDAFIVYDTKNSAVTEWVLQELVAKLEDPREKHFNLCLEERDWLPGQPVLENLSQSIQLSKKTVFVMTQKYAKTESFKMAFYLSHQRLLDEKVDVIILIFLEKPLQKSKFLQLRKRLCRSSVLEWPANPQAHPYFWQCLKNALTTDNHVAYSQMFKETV
Method in brief: as §1

[3] = test system: Human peripheral blood mononuclear cells (PBMCs); assay: Human PBMC Assay, cytokine release (HTRF); conditions: PBMC, 24 hours
Method in brief: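 Cryopreserved human PBMCs, rested overnight with 10 ng/ml hIL3, then 300,000 cells/well treated 24 h at 37° C with compound (4-fold, 11-point titration from 15 μM) in RPMI+10% FBS. Supernatant hIL6, hTNFα and hIFNα measured by HTRF; growth medium as negative control.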

[4] = test system: Mouse splenocytes; assay: Mouse Splenocyte Assay, cytokine release (HTRF); conditions: Splenocyte, 24 hours, mIL6 in supernatant, read-out: Splenocyte IL6 EC50
Method in brief: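 Splenocytes from female balb/c nude mice, thawed, 100,000 per well in RPMI + 10% FBS. Exposed for 24 h at 37 °C to a 4-fold 11-point compound titration from 15 μM; supernatant mIL6 and mTNFα measured by HTRF.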

[5] = hIFNα in supernatant, EC50 values approximated and divided into groups, read-out: PBMC IFNa EC50
[6] = hIL6 in supernatant, read-out: PBMC IL6 EC50

| SMILES | pEC50 [1] | pEC50 [2] | pEC50 [4] | pEC50 [3, 5] | pEC50 [3, 6] |
| --- | --- | --- | --- | --- | --- |
| CCCCOc1nc(N)c2nc(O)n(Cc3ccc(CN4CCC5(CCNCC5)CC4)cc3OC)c2n1 [Compound 157, 9-(4-((3,9-diazaspiro[5.5]undecan-3-yl)methyl)-2-methoxybenzyl)-6-amino-2-butoxy-9H-purin-8-ol] | 9.05 | 8.43 | 8.03 | < 8.00 | 6.33 |
| CCCCOc1nc(N)c2nc(O)n(Cc3ccc(CN4CCC(N)CC4)cc3OC)c2n1 [Compound 155, 6-amino-9-(4-((4-aminopiperidin-1-yl)methyl)-2-methoxybenzyl)-2-butoxy-9H-purin-8-ol] | 9.70 | 8.04 | 6.83 | < 8.00 | 6.06 |
| CCCCOc1nc(N)c2nc(O)n(Cc3ccc(CCCN4CCNCC4)cc3OC)c2n1 [Compound 173, 6-amino-2-butoxy-9-(2-methoxy-4-(3-(piperazin-1-yl)propyl)benzyl)-9H-purin-8-ol] | 9.70 | 9.22 | 8.30 | 8.00 to 9.00 | 5.74 |
| CCCCOc1nc(N)c2nc(O)n(Cc3ccc(CN)cc3OC)c2n1 [Compound 162, 6-amino-9-(4-(aminomethyl)-2-methoxybenzyl)-2-butoxy-9H-purin-8-ol] | 8.77 | 8.64 | 8.89 | 8.00 to 9.00 |  |
| CCCCOc1nc(N)c2nc(O)n(Cc3ccc(CNC)cc3OC)c2n1 [Compound 163, 6-amino-2-butoxy-9-(2-methoxy-4-((methylamino)methyl)benzyl)-9H-purin-8-ol] | 9.15 | 8.48 | 8.54 | > 10.00 |  |

Now from value to molecule, other results behind:

| pEC50 [1] | pEC50 [2] | pEC50 [4] | SMILES | pEC50 [3, 5] | pEC50 [3, 6] |
| --- | --- | --- | --- | --- | --- |
| 7.25 | 7.88 | 6.78 | CCOc1nc(N)c2nc(O)n(Cc3ccc(CNC4CC(F)(F)C4)cc3OC)c2n1 [Compound 109, 6-amino-9-(4-(((3,3-difluorocyclobutyl)amino)methyl)-2-methoxybenzyl)-2-ethoxy-9H-purin-8-ol] | 8.00 to 9.00 | 6.34 |
| 6.84 | 7.22 | 6.63 | CCCCCNc1nc(N)c2nc(O)n(Cc3ccc(CN)cc3)c2n1 [Compound 183, 6-amino-9-(4-(aminomethyl)benzyl)-2-(pentylamino)-9H-purin-8-ol] | < 8.00 | 6.54 |
| 7.51 | 6.84 | 6.84 | CCOc1nc(N)c2nc(O)n(Cc3ccc(CN)cc3OC)c2n1 [Compound 123, 6-amino-9-(4-(aminomethyl)-2-methoxybenzyl)-2-ethoxy-9H-purin-8-ol] | 8.00 to 9.00 | 6.17 |
| 6.56 | 7.69 | 6.84 | CCCCCNc1nc(N)c2nc(O)n(Cc3ccc(CNCC(C)(C)O)cc3)c2n1 [Compound 184, 6-amino-9-(4-(((2-hydroxy-2-methylpropyl)amino)methyl)benzyl)-2-(pentyl-amino)-9H-purin-8-ol] | 9.00 to 10.00 | 7.53 |
| 7.89 | 9.52 | 7.48 | CCOc1nc(N)c2nc(O)n(Cc3ccc(CNCc4ccccc4)cc3OC)c2n1 [Compound 107, 6-amino-9-(4-((benzylamino)methyl)-2-methoxybenzyl)-2-ethoxy-9H-purin-8-ol] | 9.00 to 10.00 | 5.57 |
| 7.10 | 5.88 | 6.43 | CCOc1nc(N)c2nc(O)n(Cc3ccc(CNCc4ccc(CN5CCC(N)CC5)cc4)cc3OC)c2n1 [Compound 144, 6-amino-9-(4-(((4-((4-aminopiperidin-1-yl)methyl)benzyl)amino)methyl)-2-methoxybenzyl)-2-ethoxy-9H-purin-8-ol] | < 8.00 | 6.72 |
